Entries after “also recorded” stand apart in the source; their conditions may differ.
Tests used:
Format in all cases: cell-based
[1] = test system: PSMA; experiment: Selective cell surface biotinylation assay of PSMA at apical or basolateral plasma membrane
Procedure: (§1) MDCK cells (clone II) were obtained from the ATCC (Manassas, Va.) and cultured in DMEM (Gibco BRL, Rockville, Md.) supplemented with 10% FBS, 2 mM L-glutamine, 25 units/ml penicillin, 25 μg/ml streptomycin, and 100 μM non-essential amino acids. Cells were grown at 37° C. in a humidified incubator with 5% CO2. Cells were treated for 10 hours with 10 mM sodium butyrate to enhance PSMA expression. For experiments involving inhibition of N-glycosylation or microtubule depolymerization, cells were treated for 3 hours with 5 μg/ml tunicamycin (Sigma, St. Louis, Mo.) or 4 μg/ml nocodazole (Sigma), or 2 μM vinblastine, vincristine, or vinorelbine (Sigma) in DMEM at 37° C. prior to the indicated experiment, unless otherwise noted.
(§2) MDCK cells were grown to confluence on transwell filters, as determined by TER, and biotinylation of the apical or basolateral surface was performed as described (25). […]
Samples were separated on 10% SDS polyacrylamide gels and transferred to nitrocellulose. […] After washing three times in PBST and once in PBS, bound antibody was detected by peroxidase-catalyzed ECL-Plus (Amersham, Buckinghamshire, UK). Densitometric analysis and quantification of bands was performed using ImageQuant software (Molecular Dynamics, Sunnyvale, Calif.). […]

[2] = test system: MDCK-PSMA cells; experiment: Post-Golgi analysis assay: co-localization of PSMA and Na,K-β-GFP vesicles after 20° C. block; details: data not shown
Procedure: MDCK-PSMA cells transiently transfected to express Na,K-β-GFP were grown on glass coverslips and treated with nocodazole or tunicamycin. Cells were incubated for 6 hours at 20° C. to accumulate newly synthesized protein in the Golgi and TGN, subsequently transferred to 37° C. for 30 minutes, and subject to immunofluorescence analysis as described above. Laser scanning confocal microscopy was performed using a Zeiss Axiovert 200 inverted microscope (Carl Zeiss, Inc, Thornwood, N.Y.). Samples were excited with Argon and Helium/Neon lasers and single channel images were generated and analyzed using the Zeiss LSM 510 Meta imaging system (Carl Zeiss, Inc.) by recording light emitted between 505 and 543 nm for GFP and above 560 nm for CY3.

[3] = test system: MDCK-PSMA cells; experiment: Domain specific internalization assay of J591; details: MDCK-PSMA monolayers, 2 μM drug 3 hours; for J591 uptake from the apical surface after drug treatment: then 5 μg/ml J591 30 minutes in apical chamber, FIG. 6F-H; for J591 internalization from the basolateral surface after drug treatment: then 5 μg/ml J591 30 minutes in basolateral chamber, FIG. 6J-L
Procedure: MDCK-PSMA cells were grown on […] pore size polycarbonate transwell filters (Corning, Corning, N.Y.) and grown to confluence as measured by transepithelial electrical resistance (TER) using an EVOM Epithelial Voltometer (World Precision Instruments, Sarasota, Fla.). Values were normalized for the area of the filter after subtracting the background resistance of a filter without cells. TER of 220-250Ω·cm^2 is indicative of the presence of functional tight junctions (24). Cells were treated with 2 μM of vinblastine, vincristine, or vinorelbine at 37° C. for 3 hours and subsequently incubated at 37° C. for 30 minutes in the presence of the indicated drug and 5 μg/ml of J591 added to either the apical or basolateral chamber. Cells were rinsed in PBS-CM, fixed, and subject to immunofluorescence analysis with FITC-conjugated secondary antibody. Single channel digital microscopic images were collected with an Olympus AX70 upright microscope using identical exposure parameters and analyzed with SPOT imaging software, version 4.0.4 (Diagnostic Instruments, Inc., Sterling Heights, Mich.).

[4] = test system: microtubule cytoskeleton; experiment: Immunofluorescence analysis of alpha-tubulin (microtubule integrity); details: MDCK-PSMA cells, 2 μM drug, 3 hours; FIG. 6B-D
Procedure: as §1
Tissue sections and MDCK cells were fixed in cold methanol at −20° C. for 30 minutes. Following fixation, specimens were placed in humidified chambers, washed with phosphate buffered saline containing 0.1 mM CaCl2 and 1 mM MgCl2 and 0.5% bovine serum albumin (PBS-CM-BSA), incubated 1 hour with primary antibody, washed with PBS-CM-BSA, incubated 30 minutes in secondary antibody, washed with PBS-CM-BSA, rinsed with distilled water, and mounted in Vectashield (Vector, Burlingame, Calif.).

[5] = test system: Na,K-ATPase; experiment: Cell surface biotinylation / immunoblot of basolateral marker Na,K-ATPase; details: MDCK-PSMA cells treated with nocodazole; FIG. 5B
Procedure: as §1, §2
Samples were separated on 10% SDS polyacrylamide gels and transferred to nitrocellulose. […] After washing three times in PBST and once in PBS, bound antibody was detected by peroxidase-catalyzed ECL-Plus (Amersham, Buckinghamshire, UK). Densitometric analysis and quantification of bands was performed using ImageQuant software (Molecular Dynamics, Sunnyvale, Calif.).

[6] = test system: PSMA; experiment: Surface immunofluorescence of PSMA; details: MDCK-PSMA cells treated with nocodazole; data not shown
Procedure: as §1
For cell surface staining, MDCK cells were grown on transwell filters and the transepithelial electrical resistance (TER) was determined using an EVOM Epithelial Voltohmeter (World Precision Instruments, Sarasota, Fla.). […]
Confocal microscopy was performed using a Fluoview laser scanning confocal microscope (Olympus America, Melville, N.Y.) as described (25). To detect FITC and propidium iodide, samples were excited with krypton and argon lasers and light emitted between 525 and 540 nm was recorded for FITC and above 630 nm for propidium iodide. Images were generated and analyzed using the Fluoview image analysis software, version 2.1.39 (Olympus America).

[7] = test system: PSMA; experiment: Antibody internalization trafficking assay (pulse-chase with mAb J591 in apical or basolateral chamber); details: MDCK-PSMA cells pulsed and chased in the presence of nocodazole (three hours); FIG. 5C
Procedure: as §1
Confluent monolayers of MDCK-PSMA cells on transwell filters were rinsed twice and incubated for 30 minutes in starving media [cystine/methionine free DMEM (CellGro, Herndon, Va.)] supplemented with 0.2% BSA. […]
For the antibody internalization trafficking assay, MDCK cells were metabolically labeled and chased in DMEM containing 5 μg/ml of mAb J591 added to either the apical or basolateral chamber. […] The relative amount of PSMA for each was calculated as a percentage of the total amount of labeled PSMA precipitated throughout the course of the experiment, as quantified by densitometry.

Row | Molecule | J591 uptake from the apical surface after drug treatment [3] | J591 internalization from the basolateral surface after drug treatment [3] | depolymerization of the microtubule cytoskeleton [4] | also measured
1 | tunicamycin | – | – | – | distribution of surface PSMA between apical and basolateral plasma membrane ([1]; MDCK-PSMA cells metabolically labeled in the presence of tunicamycin (10 μg/ml, 4 hours), FIG. 4): equivalent levels at both plasma membrane surfaces; level of co-localization of post-Golgi vesicles containing PSMA and Na,K-ATPase ([2]; MDCK-PSMA cells incubated with tunicamycin, 20° C. block then 37° C., 38/88 vesicles): approximately 43%
2 | CC[C@]1(O)C[C@H]2CN(CCc3c([nH]c4ccccc34)[C@@](C(=O)OC)(c3cc4c(cc3OC)N(C=O)[C@H]3[C@@](O)(C(=O)OC)[C@H](OC(C)=O)[C@]5(CC)C=CCN6CC[C@]43[C@@H]65)C2)C1 [vincristine] | also taken up from the apical surface | dramatic increase | Extensive microtubule depolymerization | –
3 | CC[C@]1(O)C[C@@H]2CN(CCc3c([nH]c4ccccc34)[C@@](C(=O)OC)(c3cc4c(cc3OC)N(C)[C@H]3[C@@](O)(C(=O)OC)[C@H](OC(C)=O)[C@]5(CC)C=CCN6CC[C@]43[C@@H]65)C2)C1 [vinblastine] | also taken up from the apical surface | dramatic increase | Extensive microtubule depolymerization | –
4 | COC(=O)Nc1nc2cc(C(=O)c3cccs3)ccc2[nH]1 [nocodazole, methyl[5-(2-thienyl-carbonyl)-1H-benzimidazol-2-yl]-carbamate] | – | – | – | distribution of surface PSMA between apical and basolateral plasma membrane ([1]; MDCK-PSMA cells treated with nocodazole (4 μg/ml, 3 hours), FIG. 5A): homogeneous distribution; co-localization of PSMA and Na,K-β-GFP in post-Golgi vesicles ([2]; in the presence of nocodazole, after release from 20° C. block): did not show an increased co-localization; polarity of the basolateral marker Na,K-ATPase [5]: unaffected; PSMA expression at the basolateral plasma membrane relative to untreated cells [6]: increased PSMA expression at the basolateral plasma membrane; radiolabeled PSMA precipitated with J591 in apical versus basolateral chamber (polarized delivery of PSMA) [7]: equivalent levels; also recorded: abolished
5 | CCC1=C[C@@H]2CN(C1)Cc1c([nH]c3ccccc13)[C@@](C(=O)OC)(c1cc3c(cc1OC)N(C)[C@H]1[C@@](O)(C(=O)OC)[C@H](OC(C)=O)[C@]4(CC)C=CCN5CC[C@]31[C@@H]54)C2 [vinorelbine] | also taken up from the apical surface | dramatic increase | Extensive microtubule depolymerization | –

Source: patent US20070237712A1, “Methods of Redistributing Apical Target Antigens to Detect and Treat Cellular Proliferative Disease” (priority 2004, published 2007)
